Test results published in paper PMC10955071, “AGRAMP: machine learning models for predicting antimicrobial peptides against phytopathogenic bacteria” (Frontiers in Microbiology, 2024).
Read-outs that look alike come from different tables or passages of the source. Ends that are not written are not given here.

Tests used:
[1] = system: Spiroplasma citri strain R8A2; details: for MIC: S. citri R8A2, LD8A3 medium + fetal bovine serum, phenol red, OD560, 48 h, triplicate, Resistant = ineffective; for activity against Spiroplasma citri in MIC assay (Positive/Negative, figure heading): Figures 5 and 6, positive = high activity, negative = no activity in MIC assay
[2] = system: Spiroplasma citri; details: cited from earlier work; for MIC concentration: S. citri, ref Béven et al. (1997); for MIC: spiroplasma MIC from literature
Source text: Table 7 Aggregation values of AMPs, predicted AMPs, and predicted NOAMPs. | column: MIC; Lab assay || Figure 6 Charge density analysis of predicted antimicrobial peptides (AMPs) tested in minimum inhibitory concentration (MIC) assays. […] The secondary structure of each AMP is indicated at the bottom of the respective graph. […] Intriguingly, the LK peptides had higher aggregation propensities (in the high 40s and 50s), while the peptides in the 1997 study had slightly positive (5.7, 1.3) and negative (−1.3) aggregation scores when input into AGGRESCAN. The positive control, Mel ...

[3] = ref Bevin1997 (Béven et al., 1997)
[4] = ref Bevin2002 (Béven et al., 2003)

For MCRRKGGLIGRAPPCRGRLAC [G9994], the MIC [1] was “Resistant”.

In the case of “MGLGLHLLVLAAALQGAWSQPKKKRKV [P1, synthetic peptide from Béven et al., 1997]”, the MIC concentration [2] is given as 100 µM and the MIC [2, 3] is given as 100 µM.

For MMKKVIKLQKMIALGKIVKRFSLY [I4455], the “SpiroC MIC (48hrs)” value [1] was 12.5 µg/mL.

With MLKCHLVGFVRRLIN [I2572] the “SpiroC MIC (48hrs)” value [1] was 25 µg/mL.

For “Mellitin: positive control peptide in Béven et al., 1997”, the MIC [2, 3] is given as 0.39 to .78 µM.

In the case of MFLLRRILKKLRTIFIQ [I3435], the MIC [1] is reported as 50 µg/mL and the “SpiroC MIC (48hrs)” value ([1]; Set1, tested at 50, 25, 12.5 μg/mL, OD560, triplicate) is reported as 50 µg/mL.

For MSRKLRKGKRQLKSPRFGKIVI [I2769], the MIC [1] was “Resistant”.

With MILKRVFRMKNKKASV [G10159] the MIC [1] was “Resistant”.

With MVSHLFCFKFIRNLRFKKIR [G19] the “MIC (48hrs) Resistant (R)” value [1] was 50 µg/mL.

With MLLQRLIFKPIRIIWHT [I3441] the “SpiroC MIC (48hrs)” value [1] was 25 µg/mL.

With MIVRIAIRRFLKGKRQIVKI [G33] the “MIC (48hrs) Resistant (R)” value [1] was 25 µg/mL.

For MERRRLAAKLANKLVRIGWIG [I5196], the MIC [1] was “Resistant”.

For MILRLPHLINCTTTGLISKITSYLG [I4992], the “activity against Spiroplasma citri in MIC assay (Positive/Negative, figure heading)” value [1] was “Negative” and the MIC [1] was “Resistant”.

In the case of “KLLKLLLKLLLKLLK [LK15_3.6, LK peptide (leucine/lysine copolymer) from Béven et al., 2003]”, the MIC [2, 4] is listed as 6.25 µM.

In the case of “MGLGLHLLLAAALQGAKKKRKV [P2, synthetic peptide from Béven et al., 1997]”, the MIC concentration [2] is listed as 100 µM and the MIC [2, 3] is listed as 100 µM.

In the case of “KLLKLLLKLLLKLWK [LK15_W14_3.6, LK peptide (leucine/lysine copolymer) from Béven et al., 2003]”, the MIC [2, 4] is given as 6.25 µM.

With MGFLLKTLSHIRRVIRLII [G389] the “MIC (48hrs) Resistant (R)” value [1] was 50 µg/mL.

With MLIMRKIKKKKRKNRHI [G54] the MIC [1] was “Resistant”.

In the case of MKSIKIKIKRLNSKNKKILILIFI [I970], the “SpiroC MIC (48hrs)” value [1] is reported as 25 µg/mL.

With MLNLKLIRLLRHRFAI [G15] the “MIC (48hrs) Resistant (R)” value [1] was 50 µg/mL.

In the case of “MGLGLHLLVLAAALQGAKKKRKV [P3, synthetic peptide from Béven et al., 1997]”, the MIC concentration [2] is given as 100 µM and the MIC [2, 3] is given as 100 µM.

With MAQSKRYKARLVAKRIHAVKKY [G221] the “activity against Spiroplasma citri in MIC assay (Positive/Negative, figure heading)” value [1] was “Negative” and the MIC [1] was “Resistant”.

With MARKAISKVIVGTRRKKKK [G66] the MIC [1] was “Resistant”.

In the case of MITGRQKALKFIKKKVGGIQ [G196], the MIC [1] is reported as “Resistant”.

In the case of MIDNKIGLVVKWLRSK [I3775], the MIC [1] is reported as “Resistant”.

With MILSVLKIFGVFRKRSRGN [I3440] the “SpiroC MIC (48hrs)” value [1] was 25 µg/mL.
